Among the data in patent publication US20010044445A1, “AZOLE INHIBITORS OF CYTOKINE PRODUCTION” (priority 1999, published 2001) are melting point, inhibition and IC50 values, retold here.

Data set [1] relates to IL-2. Put plainly: CD3 and CD28 Activation of Peripheral Blood T Cells and Determination of Secreted IL-2 Levels (C28 HU Assay). The note with it: PBMC stimulated with anti-CD3 and anti CD28 mAbs, 24 hour; for inhibition at 1 µM: concentration 1 μM (in c2); for inhibition at 1 µM / inhibition at 100 µM: read-out: % Inhibition of IL-2 secretion (At concentrations of 1, 10, or 100 μM); for IC50: IL-2 secretion; for inhibition at 100 µM: concentration 100 μM (in c2). The format is cell-based, Human. As for the experimental part:
Human peripheral blood mononuclear cells were cultured in RPMI 1640 medium supplemented with 10 μg/ml gentamicin, 50 μM 2-mercaptoethanol, 1X MEM non-essential amino acids (Sigma Chemical Co., St. Louis, Mo.), 100 U/ml sodium penicillin G, 100 μg/ml streptomycin sulfate, 2 mM L-glutamine, 1 mM sodium pyruvate (Life Technologies, Grand Island, N.Y.) and 10% fetal bovine serum (Hyclone, Logan, Utah) at 37° C. with 5% CO2.
Human peripheral blood mononuclear cells (PBMC) were isolated by Ficoll-Hypaque seperation. PBMCs were stimulated with a combination of immobilized anti-CD3 and soluble anti CD28 mAbs as described in Faltynek, et al. J. Enzyme Inhibition 1995, 9, 111-122, hereby incorporated by reference. Following a 24 hour incubation, cell supernatants were harvested and IL-2 levels were determined. 100 μl of 5 μg/ml monoclonal murine anti-human IL-2 antibody (Biosource International) in D-PBS was added to 96 well Maxisorb plates (Nunc) and incubated at 4° C. overnight. Plates were washed 4 times with D-PBS containing 0.05% Tween 20 (wash buffer) and blocked with D-PBS containing 1% BSA and 10 mM NaN3 (Diluent/Blocking buffer) for 1-3 hours at room temperature or overnight at 4° C. Plates were washed and recombinant human IL-2 diluted (at 10,000, 5,000, 2,500, 1,250, 625, 312.5, 156.25, 78, 39, 20 pg/ml) in diluent/blocking buffer containing a matched percentage of complete RPMI 1640 medium as the unknown samples. Tissue culture supernatant at various dilutions were added in triplicate at 100 μl/well. Plates were incubated for 2 hours at room temperature and washed 4 times with wash buffer. 100 pl of rabbit anti-human IL-2 (10 μg/ml, Genzyme) was added and incubated for 1 hour at room temperature. The incubation was followed by 4 washes and subsequent addition of 100 pl of 1:2000 dilution of alkaline phosphatase-conjugated goat anti-rabbit F(ab′)2 (Biosource International). After 1 hour the plates were washed 4 times and 100 μl of pNPP (Southern Biotech or Sigma) at 1 mg/ml in buffer was added. Color development was allowed to proceed at room temperature for 20 minutes before addition of 50 μl of 2 N NaOH. Absorbance at 405 nm was determined using a plate reader (Molecular Devices). IL-2 concentrations were calcualted using SoftMax (Molecular Devices) based on the IL-2 standard solutions.

The test system of data set [2] is Human peripheral blood mononuclear cells. Kind of data set: Human Concanavalin-A Proliferation Assay (Con HU Assay). The data set is classed as cell-based. The note with it: Homo sapiens, PBMC, concanavalin-A stimulated human PBMC, tritiated thymidine. A digest of the protocol: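 Proliferation read as tritiated thymidine uptake (0.5 μCi/well, 6 h pulse on day 3) in human PBMC cultured 3 days with 2.5 μg/ml (final) concanavalin-A. Cells, 50,000 per well in supplemented RPMI 1640 with 10% FBS, received compound 15 min before mitogen.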

In general, melting point refers to the temperature of the solid-liquid transition. Regarding `O=C(Nc1ccc(-n2nc(C(F)(F)F)cc2C(F)(F)F)cc1)c1ccc(Oc2cc(Cl)cc(Cl)c2)o1` [Example 8, N-[4-[3,5-bis(trifluoromethyl)-1H-pyrazol-1-yl]phenyl]-5-(3,5-dichlorophenoxy)-2-furancarboxamide], the melting point was 152 to 153 °C. Besides, the inhibition at 1 µM in data set [1] (Homo sapiens) was found to be 20%.
For `O=C(Nc1ccc(-n2nc(C(F)(F)F)cc2C(F)(F)F)cc1)Nc1ccc(C(F)(F)F)cc1` [Example 33, N-[4-[3,5-bis(trifluoromethyl)-1H-pyrazol-1-yl]phenyl]-N′-[4-(trifluoromethyl)phenyl]urea], the inhibition at 1 µM in data set [1] (Homo sapiens) was 6%.
Regarding `O=C(Nc1ccccc1)Nc1ccc(-n2nc(C(F)(F)F)cc2C(F)(F)F)cc1` [Example 36, N-[4-[3,5-bis(trifluoromethyl)-1H-pyrazol-1-yl]phenyl]-N′-phenylurea], the melting point fell in the range of 185 to 187 °C. In data set [1] (Homo sapiens), the inhibition at 1 µM amounted to 10%.
In the same order, the values of `Cc1c(Cl)cccc1NC(=O)Nc1ccc(-n2nc(C(F)(F)F)cc2C(F)(F)F)cc1` [Example 38, N-[4-[3,5-bis(trifluoromethyl)-1H-pyrazol-1-yl]phenyl]-N′-(3-chloro-2-methylphenyl)urea] are 193 to 196 °C and 16%.
In the same order, the values of `CCCCCCCNC(=O)Nc1ccc(-n2nc(C(F)(F)F)cc2C(F)(F)F)cc1` [Example 47, N-[4-[3,5-bis(trifluoromethyl)-1H-pyrazol-1-yl]phenyl]-N′-heptylurea] are 129 to 130 °C and 2%.
As a reminder, the IC50 is the midpoint of a concentration-inhibition curve. Take `O=C(Nc1ccc(-n2nc(C(F)(F)F)cc2C(F)(F)F)cc1)C12CC3CC(CC(C3)C1)C2` [Example 62]: in data set [1], the IC50 worked out at 5040 nM.
`CC(C)(C)OC(=O)NCCCCCCC(=O)Nc1ccc(-n2nc(C(F)(F)F)cc2C(F)(F)F)cc1` [Example 64, 1,1-dimethylethyl [7-[[4-[3,5-bis(trifluoromethyl)-1H-pyrazol-1-yl]phenyl]amino]-7-oxoheptyl]carbamate] registered a melting point of 86 to 88 °C. Further, in data set [1] (Homo sapiens), the IC50 came to 22300 nM and the inhibition at 100 µM turned out to be 86%.
In the case of `CCCCC(CC)C(=O)Nc1ccc(-n2nc(C(F)(F)F)cc2C(F)(F)F)cc1` (stereo not drawn) [Example 72, N-[4-[3,5-bis(trifluoromethyl)-1H-pyrazol-1-yl]phenyl]-2-ethylhexanamide], the melting point was in the range of 127 to 128 °C. The inhibition at 1 µM in data set [1] (Homo sapiens) amounted to 11%.
In the same order, the values of `O=C(CCC1CCCC1)Nc1ccc(-n2nc(C(F)(F)F)cc2C(F)(F)F)cc1` [Example 99, N-[4-[3,5-bis(trifluoromethyl)-1H-pyrazol-1-yl]phenyl]cyclopentanepropanamide] are 130 to 132 °C and 9%.
For `O=C(Nc1ccc(-n2nc(C(F)(F)F)cc2C(F)(F)F)cc1)c1ccco1` [Example 113, N-[4-[3,5-bis(trifluoromethyl)-1H-pyrazol-1-yl]phenyl]-2-furancarboxamide], in that order: 179 to 182 °C and 19%.
As to `O=C(Nc1ccc(-n2nc(C(F)(F)F)cc2C(F)(F)F)cc1)c1cnnc2ccccc12` [Example 118, N-[4-[3,5-bis(trifluoromethyl)-1H-pyrazol-1-yl]phenyl]-4-cinnolinecarboxamide], the inhibition at 1 µM in data set [1] (Homo sapiens) amounted to 27%.
`O=C(Nc1ccc(-n2nc(C(F)(F)F)cc2C(F)(F)F)cc1)c1cccs1` [Example 131, N-[4-[3,5-bis(trifluoromethyl)-1H-pyrazol-1-yl]phenyl]-2-thiophenecarboxamide] came in with a melting point greater than 230 °C. Further, the inhibition at 1 µM in data set [1] (Homo sapiens) came out at 32%.
In the same order, the values of `O=C(CCC(=O)c1ccc(F)cc1)Nc1ccc(-n2nc(C(F)(F)F)cc2C(F)(F)F)cc1` [Example 152, N-[4-[3,5-bis(trifluoromethyl)-1H-pyrazol-1-yl]phenyl]-4-fluoro-γ-oxobenzenebutanamide] are 156 to 158 °C and 3%.
With `O=C(Nc1ccc(-n2nc(C(F)(F)F)cc2C(F)(F)F)cc1)C1CCc2ccccc2C1` (stereo not drawn) [Example 153, N-[4-[3,5-bis(trifluoromethyl)-1H-pyrazol-1-yl]phenyl]-1,2,3,4-tetrahydro-2-naphthalenecarboxamide], the melting point lay within 199 to 201 °C. Moreover, in data set [1] (Homo sapiens), the IC50 is 457 nM and the inhibition at 100 µM came out at 94%.
In the case of `CC(C)(Oc1ccc(Cl)cc1)C(=O)Nc1ccc(-n2nc(C(F)(F)F)cc2C(F)(F)F)cc1` [Example 155, N-[4-[3,5-bis(trifluoromethyl)-1H-pyrazol-1-yl]phenyl]-2-(4-chlorophenoxy)-2-methylpropanamide], the inhibition at 1 µM in data set [1] (Homo sapiens) is 8%.
Consider `Cc1ccnn1-c1ccc(NC(=O)c2ccc(Cl)cc2)cc1` [Example 284, 4-Chloro-N-[4-(5-methyl-1H-pyrazol-1-yl)phenyl]benzamide], for which the melting point fell in the range of 189 to 191 °C. Besides, the inhibition at 1 µM in data set [1] (Homo sapiens) came to 17%.
With `Cc1nnsc1C(=O)Nc1ccc(-n2nccc2C)cc1` [Example 285, 4-Methyl-N-[4-(5-methyl-1H-pyrazol-1-yl)phenyl]-1,2,3-thiadiazole-5-carboxamide], the melting point lay within 163 to 164 °C. Besides, in data set [1] (Homo sapiens), the inhibition at 1 µM was determined as 26%.
In turn, `Cc1noc(C)c1C(=O)Nc1ccc(-n2nccc2C)cc1` [Example 286, 3,5-dimethyl-N-[4-(5-methyl-1H-pyrazol-1-yl)phenyl]-4-isoxazolecarboxamide] displayed a melting point of 151 to 152 °C. Moreover, the inhibition at 1 µM in data set [1] (Homo sapiens) turned out to be 2%.
Compound `O=C(Nc1ccc(-n2nc(C(F)(F)F)cc2OC(F)F)cc1)c1ccccc1F` [Example 352, N-(4-(5-(difluoromethoxy)-3-(trifluoromethyl)-1H-pyrazol-1-yl)phenyl)-2-fluorobenzamide] came in with a melting point of 130 to 131 °C. The same compound yielded an IC50 in data set [2] of 141 nM.
In the case of `O=C(Nc1ccc(-n2nc(C(F)(F)F)cc2OC(F)F)cc1)c1ccccc1Cl` [Example 353, 2-chloro-N-(4-(5-(difluoromethoxy)-3-(trifluoromethyl)-1H-pyrazol-1-yl)phenyl)benzamide], the melting point is 122 to 123 °C. The compound further had an IC50 in data set [2] of 174 nM.
For `O=C(Nc1ccc(-n2nc(C(F)(F)F)cc2OC(F)F)cc1)c1cccc(F)c1F` [Example 354, N-(4-(5-(difluoromethoxy)-3-(trifluoromethyl)-1H-pyrazol-1-yl)phenyl)-2,3-difluorobenzamide], in that order: 154 to 155 °C and 75 nM.
For `O=C(Nc1ccc(-n2nc(-c3ccoc3)cc2Cl)cc1)c1ccncc1F` [Example 356, N-(4-(5-chloro-3-(3-furyl)-1H-pyrazol-1-yl)phenyl)-3-fluoroisonicotinamide], in that order: 165 to 166 °C and 247 nM.
